Reference: patent US20250235543A1, “MODIFIED PROTEINS AND PROTEIN DEGRADERS” (Cullgen (Shanghai), Inc., priority 2021, published 2025)
Like-named read-outs stand apart in the source and are kept apart here.

Columns and labels:
cyclin D1 = experiment: Cyclin D1 percentage degradation in Calu-1 cells (immunoblotting); type: cell-based; conditions: 16 hours
Procedure, shortened: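 Cyclin D1 degradation was assessed by western blot. Clarified lysates, obtained by RIPA lysis with inhibitors and centrifugation at 13,000 rpm, were normalized by BCA protein assay and separated by SDS-PAGE. Bands were detected with Western ECL Substrate on a Bio-Rad ChemiDoc MP Imaging system and quantified in Image Lab software to derive percentage degradation.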

CDK4 = target: T1, CDK4 (Homo sapiens, UniProt P11802); experiment: CDK4 percentage degradation in Calu-1 cells (immunoblotting); type: cell-based; conditions: for inhibition at 10 µM: read-out: CDK4 Degradation (10 μM); for inhibition at 0.2 µM: read-out: CDK4 Degradation (200 nM)
T1 construct: endogenous in cells; host or cells: Calu-1
T1 sequence (P11802 2-303 limits assumed): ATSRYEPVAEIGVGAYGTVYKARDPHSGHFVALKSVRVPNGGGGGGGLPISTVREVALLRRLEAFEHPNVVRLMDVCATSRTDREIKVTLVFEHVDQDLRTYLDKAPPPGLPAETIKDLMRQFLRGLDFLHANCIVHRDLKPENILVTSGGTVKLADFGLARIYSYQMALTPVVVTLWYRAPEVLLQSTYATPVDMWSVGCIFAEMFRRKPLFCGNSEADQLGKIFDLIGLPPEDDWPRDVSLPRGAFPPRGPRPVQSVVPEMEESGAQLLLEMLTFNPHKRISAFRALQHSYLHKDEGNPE
T1 sequence (P24385 whole entry partner): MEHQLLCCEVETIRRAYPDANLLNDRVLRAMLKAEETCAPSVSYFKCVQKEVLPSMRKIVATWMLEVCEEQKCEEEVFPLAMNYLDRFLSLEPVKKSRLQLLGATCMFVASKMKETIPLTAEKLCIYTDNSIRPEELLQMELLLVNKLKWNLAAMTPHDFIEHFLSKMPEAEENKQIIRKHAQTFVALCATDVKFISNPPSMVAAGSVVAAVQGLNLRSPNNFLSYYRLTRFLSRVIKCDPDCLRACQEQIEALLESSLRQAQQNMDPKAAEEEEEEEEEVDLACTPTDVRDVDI
T1 sequence (Q16531 2-1140 limits assumed, further chain): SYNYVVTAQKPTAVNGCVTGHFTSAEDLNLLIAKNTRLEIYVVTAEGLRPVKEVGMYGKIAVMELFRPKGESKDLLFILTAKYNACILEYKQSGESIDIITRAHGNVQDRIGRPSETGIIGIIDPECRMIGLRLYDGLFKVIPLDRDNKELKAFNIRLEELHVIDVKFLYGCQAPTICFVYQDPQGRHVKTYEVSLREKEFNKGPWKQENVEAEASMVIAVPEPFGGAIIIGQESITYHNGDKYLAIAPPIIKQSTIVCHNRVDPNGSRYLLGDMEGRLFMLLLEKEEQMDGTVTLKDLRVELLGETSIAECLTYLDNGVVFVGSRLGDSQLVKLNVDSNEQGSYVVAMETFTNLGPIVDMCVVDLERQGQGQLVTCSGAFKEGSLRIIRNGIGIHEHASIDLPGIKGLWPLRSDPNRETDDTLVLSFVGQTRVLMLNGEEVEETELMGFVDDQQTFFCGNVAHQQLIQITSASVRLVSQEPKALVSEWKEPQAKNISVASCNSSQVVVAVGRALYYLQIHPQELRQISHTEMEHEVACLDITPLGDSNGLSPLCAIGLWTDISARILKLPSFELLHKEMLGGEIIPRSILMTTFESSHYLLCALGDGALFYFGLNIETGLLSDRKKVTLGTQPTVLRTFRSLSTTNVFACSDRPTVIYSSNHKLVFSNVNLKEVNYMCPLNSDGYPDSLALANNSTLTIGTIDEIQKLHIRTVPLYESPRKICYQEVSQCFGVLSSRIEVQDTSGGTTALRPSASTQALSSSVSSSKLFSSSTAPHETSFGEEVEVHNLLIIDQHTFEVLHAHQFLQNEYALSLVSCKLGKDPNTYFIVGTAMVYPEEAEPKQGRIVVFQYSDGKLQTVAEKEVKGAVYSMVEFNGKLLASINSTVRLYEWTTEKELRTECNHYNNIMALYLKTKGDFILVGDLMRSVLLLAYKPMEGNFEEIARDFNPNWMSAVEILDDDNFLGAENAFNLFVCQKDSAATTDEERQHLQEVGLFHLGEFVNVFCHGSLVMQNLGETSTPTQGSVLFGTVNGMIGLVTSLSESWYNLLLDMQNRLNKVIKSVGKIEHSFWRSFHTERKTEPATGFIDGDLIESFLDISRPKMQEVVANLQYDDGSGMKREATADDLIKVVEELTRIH
Procedure, shortened: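 CDK4 degradation was measured by immunoblotting. Cells were washed in cold PBS and lysed in RIPA buffer with inhibitors for 30 min at 4° C., then spun at 13,000 rpm to clear. After BCA protein determination, lysates were heated at 99° C. for 5 min in Laemmli buffer, resolved on SDS-PAGE, imaged on a ChemiDoc MP with ECL substrate, and band intensities quantified.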

Structure (SMILES) | inhibition at 10 µM (CDK4; Calu-1 cells, 16 hours) [%] | inhibition at 0.2 µM (CDK4; Calu-1 cells, 200 nM, 16 hours) [%] | CyclinD1 Degradation (10 μM) (cyclin D1) | CyclinD1 Degradation (200 nM) (cyclin D1) | inhibition at 0.2 µM (CDK4; Calu-1, 16 h) [%]
Cc1nc(NC(=O)c2ccccc2NC(=O)CNC(=O)CN2CCN(c3ccc(Nc4ncc(F)c(-c5cc(F)c6nc(C)n(C(C)C)c6c5)n4)nc3)CC2)sc1C [CPD-300, N-(4,5-Dimethylthiazol-2-yl)-2-(2-(2-(4-(6-((5-fluoro-4-(4-fluoro-1-isopropyl-2-methyl-1H-benzo[d]imidazol-6-yl)pyrimidin-2-yl)amino)pyridin-3-yl)piperazin-1-yl)acetamido)acetamido)benzamide] | < 30 |  | D (protein percentage degradation < 30%) |  | 
CC(=O)c1c(C)c2cnc(Nc3ccc(N4CCN(CC(=O)NCCOCCOCCC(=O)Nc5ccccc5C(=O)Nc5nc(C6CC6)ns5)CC4)cn3)nc2n(C2CCCC2)c1=O [CPD-059, 2-(3-(2-(2-(2-(4-(6-((6-Acetyl-8-cyclopentyl-5-methyl-7-oxo-7,8-dihydropyrido[2,3-d]pyrimidin-2-yl)amino)pyridin-3-yl)piperazin-1-yl)acetamido)ethoxy)ethoxy)propanamido)-N-(3-cyclopropyl-1,2,4-thiadiazol-5-yl)benzamide] |  | < 30 |  | D (protein percentage degradation <30%) | 
CC(=O)c1c(C)c2cnc(Nc3ccc(N4CCN(C(=O)CCOCCOCCOCCOCCC(=O)Nc5ccccc5C(=O)Nc5nc(C)c(C)s5)CC4)cn3)nc2n(C2CCCC2)c1=O [CPD-176, 16-(4-(6-((6-Acetyl-8-cyclopentyl-5-methyl-7-oxo-7,8-dihydropyrido[2,3-d]pyrimidin-2-yl)amino)pyridin-3-yl)piperazin-1-yl)-N-(2-((4,5-dimethylthiazol-2-yl)carbamoyl)phenyl)-16-oxo-4,7,10,13-tetraoxahexadecanamide] |  |  |  | A (protein percentage degradation >=80%) | > 80
Cc1nc(NC(=O)c2ccccc2NC(=O)CCCNC(=O)CN2CCN(Cc3ccc(Nc4ncc(F)c(-c5cc(F)c6nc(C)n(C(C)C)c6c5)n4)nc3)CC2)sc1C [CPD-274, N-(4,5-Dimethylthiazol-2-yl)-2-(4-(2-(4-((6-((5-fluoro-4-(4-fluoro-1-isopropyl-2-methyl-1H-benzo[d]imidazol-6-yl)pyrimidin-2-yl)amino)pyridin-3-yl)methyl)piperazin-1-yl)acetamido)butanamido)benzamide] | < 30 |  | B (protein percentage degradation < 80%, and >= 50%) |  | 
CC(=O)c1c(C)c2cnc(Nc3ccc(N4CCN(CC(=O)NCCOCCOCCC(=O)Nc5ccccc5C(=O)Nc5ccc(C)nn5)CC4)cn3)nc2n(C2CCCC2)c1=O [CPD-056, 2-(3-(2-(2-(2-(4-(6-((6-Acetyl-8-cyclopentyl-5-methyl-7-oxo-7,8-dihydropyrido[2,3-d]pyrimidin-2-yl)amino)pyridin-3-yl)piperazin-1-yl)acetamido)ethoxy)ethoxy)propanamido)-N-(6-methylpyridazin-3-yl)benzamide] |  | 50 to 80 |  | A (protein percentage degradation >=80%) | 
Cc1nc(NC(=O)c2ccccc2NC(=O)CCCCNC(=O)CN2CCN(c3ccc(Nc4ncc(F)c(-c5cc(F)c6nc(C)n(C(C)C)c6c5)n4)nc3)CC2)sc1C [CPD-303, N-(4,5-Dimethylthiazol-2-yl)-2-(5-(2-(4-(6-((5-fluoro-4-(4-fluoro-1-isopropyl-2-methyl-1H-benzo[d]imidazol-6-yl)pyrimidin-2-yl)amino)pyridin-3-yl)piperazin-1-yl)acetamido)pentanamido)benzamide] | < 30 |  | D (protein percentage degradation < 30%) |  | 
CC(=O)c1c(C)c2cnc(Nc3ccc(N4CCN(CC(=O)NCCOCCOCCOCCOCCOCCNC(=O)CNc5ccc(C(=O)Nc6ncc(C)s6)c(C)c5)CC4)cn3)nc2n(C2CCCC2)c1=O [CPD-014, 4-((23-(4-(6-((6-Acetyl-8-cyclopentyl-5-methyl-7-oxo-7,8-dihydropyrido[2,3-d]pyrimidin-2-yl)amino)pyridin-3-yl)piperazin-1-yl)-2,22-dioxo-6,9,12,15,18-pentaoxa-3,21-diazatricosyl)amino)-2-methyl-N-(5-methylthiazol-2-yl)benzamide] |  | < 30 |  | D (protein percentage degradation <30%) | 

Now from value to molecule, other results behind:

inhibition at 10 µM (CDK4; Calu-1 cells, 16 hours) [%] | inhibition at 0.2 µM (CDK4; Calu-1 cells, 200 nM, 16 hours) [%] | Structure (SMILES) | CyclinD1 Degradation (10 μM) (cyclin D1) | CyclinD1 Degradation (200 nM) (cyclin D1) | inhibition at 0.2 µM (CDK4; Calu-1, 16 h) [%]
 | < 30 | CC(=O)c1c(C)c2cnc(Nc3ccc(N4CCN(CC(=O)NCCOCCNc5ccc(C)c(C(=O)Nc6nc(C)c(C)s6)c5)CC4)cn3)nc2n(C2CCCC2)c1=O [CPD-096, 5-((2-(2-(2-(4-(6-((6-Acetyl-8-cyclopentyl-5-methyl-7-oxo-7,8-dihydropyrido[2,3-d]pyrimidin-2-yl)amino)pyridin-3-yl)piperazin-1-yl)acetamido)ethoxy)ethyl)amino)-N-(4,5-dimethylthiazol-2-yl)-2-methylbenzamide] |  | D (protein percentage degradation <30%) | 
 | < 30 | CC(=O)c1c(C)c2cnc(Nc3ccc(N4CCN(CC(=O)NCCCCCNc5cccc(C(=O)Nc6nc(C)c(C)s6)c5C)CC4)cn3)nc2n(C2CCCC2)c1=O [CPD-100, 3-((5-(2-(4-(6-((6-Acetyl-8-cyclopentyl-5-methyl-7-oxo-7,8-dihydropyrido[2,3-d]pyrimidin-2-yl)amino)pyridin-3-yl)piperazin-1-yl)acetamido)pentyl)amino)-N-(4,5-dimethylthiazol-2-yl)-2-methylbenzamide] |  | D (protein percentage degradation <30%) | 
 | < 30 | CNC(=O)c1ccc(C)nc1NCCCCCCCNC(=O)CN1CCN(c2ccc(Nc3ncc4c(C)c(C(C)=O)c(=O)n(C5CCCC5)c4n3)nc2)CC1 [CPD-340] |  | D (protein percentage degradation <30%) | 
 | < 30 | CC(=O)c1c(C)c2cnc(Nc3ccc(N4CCN(CC(=O)NCCCCCNc5ccc(C)c(C(=O)Nc6nc(C)c(C)s6)c5)CC4)cn3)nc2n(C2CCCC2)c1=O [CPD-116, 5-((5-(2-(4-(6-((6-Acetyl-8-cyclopentyl-5-methyl-7-oxo-7,8-dihydropyrido[2,3-d]pyrimidin-2-yl)amino)pyridin-3-yl)piperazin-1-yl)acetamido)pentyl)amino)-N-(4,5-dimethylthiazol-2-yl)-2-methylbenzamide] |  | D (protein percentage degradation <30%) | 
 | < 30 | CC(=O)c1c(C)c2cnc(Nc3ccc(N4CCN(CC(=O)NCCOCCOCCOCCOCCNc5ccc(C)c(C(=O)Nc6nc(C)c(C)s6)c5)CC4)cn3)nc2n(C2CCCC2)c1=O [CPD-118, 5-((1-(4-(6-((6-Acetyl-8-cyclopentyl-5-methyl-7-oxo-7,8-dihydropyrido[2,3-d]pyrimidin-2-yl)amino)pyridin-3-yl)piperazin-1-yl)-2-oxo-6,9,12,15-tetraoxa-3-azaheptadecan-17-yl)amino)-N-(4,5-dimethylthiazol-2-yl)-2-methylbenzamide] |  | D (protein percentage degradation <30%) | 
 | 50 to 80 | CNc1ccc(NC(=O)CCOCCOCCNC(=O)CN2CCN(c3ccc(Nc4ncc5c(C)c(C(C)=O)c(=O)n(C6CCCC6)c5n4)nc3)CC2)c(C(=O)Nc2nc(C)c(C)s2)c1 [CPD-150, 2-(3-(2-(2-(2-(4-(6-((6-Acetyl-8-cyclopentyl-5-methyl-7-oxo-7,8-dihydropyrido[2,3-d]pyrimidin-2-yl)amino)pyridin-3-yl)piperazin-1-yl)acetamido)ethoxy)ethoxy)propanamido)-N-(4,5-dimethylthiazol-2-yl)-5-(methylamino)benzamide] |  | A (protein percentage degradation >=80%) | 
 | < 30 | CC(=O)c1c(C)c2cnc(Nc3ccc(N4CCN(CC(=O)NCCCNc5ccc(C)c(C(=O)Nc6nc(C)c(C)s6)c5)CC4)cn3)nc2n(C2CCCC2)c1=O [CPD-087, 5-((3-(2-(4-(6-((6-Acetyl-8-cyclopentyl-5-methyl-7-oxo-7,8-dihydropyrido[2,3-d]pyrimidin-2-yl)amino)pyridin-3-yl)piperazin-1-yl)acetamido)propyl)amino)-N-(4,5-dimethylthiazol-2-yl)-2-methylbenzamide] |  | D (protein percentage degradation <30%) | 
 | < 30 | CC(=O)c1c(C)c2cnc(Nc3ccc(N4CCN(CC(=O)NCCOCCC(=O)Nc5ccccc5C(=O)Nc5nc(C)c(C)s5)CC4)cn3)nc2n(C2CCCC2)c1=O [CPD-147, 2-(3-(2-(2-(4-(6-((6-Acetyl-8-cyclopentyl-5-methyl-7-oxo-7,8-dihydropyrido[2,3-d]pyrimidin-2-yl)amino)pyridin-3-yl)piperazin-1-yl)acetamido)ethoxy)propanamido)-N-(4,5-dimethylthiazol-2-yl)benzamide] |  | D (protein percentage degradation <30%) | 
 | 30 to 50 | CC(=O)c1c(C)c2cnc(Nc3ccc(N4CCN(C(=O)CCOCCOCCNc5cccc(C(=O)Nc6nc(C)c(C)s6)c5C)CC4)cn3)nc2n(C2CCCC2)c1=O [CPD-121, 3-((2-(2-(3-(4-(6-((6-Acetyl-8-cyclopentyl-5-methyl-7-oxo-7,8-dihydropyrido[2,3-d]pyrimidin-2-yl)amino)pyridin-3-yl)piperazin-1-yl)-3-oxopropoxy)ethoxy)ethyl)amino)-N-(4,5-dimethylthiazol-2-yl)-2-methylbenzamide] |  | C (protein percentage degradation <50%, and >=30%) | 
